Test results from article PMC10846223, “Substrate specificity and ecological significance of PstS homologs in phosphorus uptake in marine Synechococcus sp. WH8102” (Microbiology Spectrum, 2024).

Legend:
Assay in all cases: biochemical
PstS2 = target: T1, PstS2 (Parasynechococcus marenigrum, UniProt Q7U3C5)
T1 construct: gene SYNW2507
T1 sequence (Q7U3C5 24-336): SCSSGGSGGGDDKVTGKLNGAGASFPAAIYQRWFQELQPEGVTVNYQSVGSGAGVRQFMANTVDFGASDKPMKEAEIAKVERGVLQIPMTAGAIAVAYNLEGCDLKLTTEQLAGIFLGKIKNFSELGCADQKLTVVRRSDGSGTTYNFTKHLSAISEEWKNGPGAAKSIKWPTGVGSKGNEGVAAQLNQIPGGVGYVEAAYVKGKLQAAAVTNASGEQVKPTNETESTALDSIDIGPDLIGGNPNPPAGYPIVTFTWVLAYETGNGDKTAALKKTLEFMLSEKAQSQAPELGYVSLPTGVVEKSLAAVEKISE

PstS1a = target: T2, PstS1a (Parasynechococcus marenigrum, UniProt Q7U7G6)
T2 construct: gene SYNW1018
T2 sequence (Q7U7G6 25-324): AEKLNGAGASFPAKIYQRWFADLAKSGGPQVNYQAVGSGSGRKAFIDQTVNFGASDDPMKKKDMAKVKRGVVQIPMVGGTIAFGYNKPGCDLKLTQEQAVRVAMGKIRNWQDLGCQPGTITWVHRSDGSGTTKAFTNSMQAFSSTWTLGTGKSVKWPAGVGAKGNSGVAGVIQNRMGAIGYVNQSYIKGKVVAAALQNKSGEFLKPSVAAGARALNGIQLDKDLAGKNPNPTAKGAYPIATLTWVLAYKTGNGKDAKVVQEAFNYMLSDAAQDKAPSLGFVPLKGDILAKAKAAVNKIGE

PstS1b = target: T3, PstS1b (Parasynechococcus marenigrum, UniProt Q7U592)
T3 construct: gene SYNW1815
T3 sequence (Q7U592 26-325): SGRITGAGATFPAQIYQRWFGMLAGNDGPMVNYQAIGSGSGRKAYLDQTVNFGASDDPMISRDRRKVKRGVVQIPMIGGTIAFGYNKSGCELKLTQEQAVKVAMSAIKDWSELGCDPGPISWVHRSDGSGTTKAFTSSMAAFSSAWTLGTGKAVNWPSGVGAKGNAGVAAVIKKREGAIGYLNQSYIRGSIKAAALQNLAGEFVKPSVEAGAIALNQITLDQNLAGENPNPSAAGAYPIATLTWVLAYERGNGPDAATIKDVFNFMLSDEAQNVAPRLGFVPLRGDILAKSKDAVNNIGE

**Q.** Which results are given for `O=P(O)(O)O` [phosphate]?
**A.** Kd (PstS2): 4.3 µM; Kd (PstS1a): 3.3 µM; Kd (PstS1b): 0.44 µM
